{
  "source": "patent US11529344B2",
  "about": "“EZH2 inhibitor combination therapies” (Pfizer Inc., priority 2017, dated 2022)",
  "key": {"H841 SCLC cells": {"test_system": "H841 SCLC cells", "assay": "Cell growth inhibition assay, H841 SCLC cells", "type": "cell-based", "settings": "NCI-H841, 504 h; H841 cell line, 21 days of treatment; read-out: inhibition of cell proliferation, mean IC50", "protocol": "(§1) COR-L88 (92031917) cells were purchased from ECACC. […] No. 1565565).\n(§2) H841, H446 and H69 cells were plated in their recommended complete culture medium described above (1 mL/well) in triplicate 12 well plates for each cell line at a density of 100,000 cells per well. Plates were incubated overnight at 37° C. and 5% CO2. Compound 1 stock was prepared at 50 mM in DMSO and was dispensed to several single-use aliquots and stored at −20° C. To prepare the compound plate, Compound 1 was diluted to 3 mM in DMSO and then 3-fold serial dilution were made in DMSO (10 doses in total). […] On Day 21, cell morphology was observed under microscope and any morphology changes upon compound treatment were recorded. […] Cell viability was measured using according to manufacturer's instructions.\n(§3) Based on the strong activity observed with Compound 1 in DMS114 cells (see example 1 above), the antiproliferative activity of Compound 1 was also tested in 3 additional SCLC cell lines, namely H841, H446 and H69 using the cell proliferation assay described above. Each cell line was treated with different concentrations of Compound 1 using a 10-point dose curve (1:3 dilution in DMSO) with 3 μM to 0.1 nM for 21 days and then assessed for cell viability. […]"}, "H69 SCLC cells": {"test_system": "H69 SCLC cells", "assay": "Cell growth inhibition assay, H69 SCLC cells", "type": "cell-based", "settings": "Homo sapiens, NCI-H69, 504 h; H69 cell line, 21 days of treatment; read-out: inhibition of cell proliferation, mean IC50", "protocol": "as §1, §2, §3"}, "[1]": {"test_system": "H3K27Me2 in DMS114 tumors", "assay": "H3K27Me2 ELISA on histones of DMS114 xenograft tumors", "type": "in vivo, female NOD/SCID mice", "settings": "Mus musculus, DMS-114, 1320 h; 300 mg/kg BID, tumors harvested at Day 55; read-out: maximum inhibition of H3K27Me2 in tumor samples", "protocol": "Extracts were aliquoted and stored at −20° C. (short term) or −80° C. (long term). […] Data was analyzed using GraphPad Prism version 7.02.\nThe in vivo activity of Compound 1 against EZH2 in the DMS114 SCLC xenograft model was determined by measurement of the relative amount of cellular H3K27Me3 and Me2 levels with ELISA using the tumor tissue samples harvested at Day 55 from the study described in Example 3 above."}, "[2]": {"test_system": "SLFN11 expression in SCLC cell lines", "assay": "SLFN11 western blotting", "type": "cell-based", "settings": "500 nM for 7 days, several SCLC cell lines", "protocol": "SCLC cell lines were treated with 500 nM of Compound 1 in DMSO for 7 days and changes in SLFN11 protein levels were then assessed using western blotting. After drug treatment, cells were trypsized (adherent cells), harvested by centrifugation at 2000 rpm at room temperature, washed with PBS, followed by collection of cell pellets by centrifugation. Cell pellets were re-suspended in appropriate volume of RIPA buffer (Sigma; Catalogue #R0278; 100 ul per 5-10×10^5 cells), incubated on ice for 10-15 min, centrifuged at 12,000 g and 4° C. for 10 min and then supernatant was collected. 15 ug of total protein lysates was run on 4-12% NuPAGE™ Bis-Tris protein gel (NP0336Box) in 1×NuPAGE™ MOPS SDS Running Buffer (NP0001). Gels were run on ice at 80V for 20 minutes and then 150V for 60 minutes. […] The signal was detected using the ECL system (Thermo-34078 and -34096) and imaged on the ImageQuant LAS400 imager.\nTo understand the potential mechanisms responsible for EZH2i synergy observed with chemotherapy agents, we assessed the effects of Compound 1 treatment on SLFN11 expression, a sensitizer to DNA damaging agents. Several SCLC cell lines were treated with 500 nM of Compound 1 for 7 days and changes in SLFN11 protein levels were assessed using western blotting according to the methodology described above."}},
  "data": [
    {"smiles": "COc1cc(C)[nH]c(=O)c1CN1CCc2c(Cl)cc([C@H](OC)C3COC3)c(Cl)c2C1=O", "note": "[Compound 1, 5,8-dichloro-2-[(4-methoxy-6-methyl-2-oxo-1,2-dihydro-pyridin-3-yl)methyl]-7-[(R)-methoxy(oxetan-3-yl)methyl]-3,4-dihydroisoquinolin-1(2H)-one]", "values": [
      {"measurement": "IC50", "setting": "H841 SCLC cells", "value": 73.2, "unit": "nM"},
      {"measurement": "IC50", "setting": "H69 SCLC cells", "value": 224, "unit": "nM"},
      {"measurement": "inhibition at 300 mg/kg", "setting": "[1]", "value": 82, "unit": "%"},
      {"measurement": "SLFN11 protein expression", "setting": "[2]", "value": "strong induction of SLFN11 expression"}
    ]}
  ]
}
